Assay [1] concerns the target T1, Recombinant ROCK1 (amino acids 1-477) (Homo sapiens, UniProt Q13464).
T1 construct: Recombinant ROCK1 (amino acids 1-477)
Put plainly: ROCK inhibition assay, LANCE Ultra TR-FRET (ROCK1). Conditions: 1 mM of ATP. The class given is biochemical. The method, then:
(§1) Kinase IC50 was determined through an in vitro assay based on LANCE Ultra TR-FRET (Time-Resolved Fluorescence Resonance Energy Transfer) homogeneous technologies method 5 (Perkin Elmer). Recombinant ROCK1 (amino acids 1-477) and ROCK2 (amino acids 5-554) proteins were purchased from Carna Biosciences and SignalChem. Compound activities were measured by Envision and IC50s were calculated. The assays were performed in white LUMITRAC™ 200 96 well half-area microplates from Greiner Bio-One. The kinase reaction buffer consisted of 50 mM HEPES pH 7.5, 1 mM EGTA, 10 mM MgCl2, 2 mM DTT and 0.01% 10 Tween-20. Kinases were incubated with 50 nM (ULight-CREBtide) substrate in the presence of 1 mM (ROCK1) or 1 mM (ROCK2) of ATP. The kinase reaction was carried out for 1 hour before addition of a stopping buffer to a final of 10 mM EDTA and 0.6 nM of LANCE Ultra Europium anti-phospho-CREB (Ser133) antibody (PerkinElmer TRF0200) in LANCE detection buffer. All assay incubations were performed at room temperature, and the microplates were sealed with polyester film during that time. The reaction was incubated for 1 hour, and the signal was read in Envision in TR-FRET mode (excitation at 320 nm and emission at 615/665 nm).
(§2) As used herein, a way to describe potency of inhibitory activity (nM) is a value of inhibitory activity at 50% (IC50).

Assay [2] has as its target T2, Recombinant ROCK2 (amino acids 5-554) (Homo sapiens, UniProt O75116).
T2 construct: ROCK2 (amino acids 5-554)
Put plainly: ROCK inhibition assay, LANCE Ultra TR-FRET (ROCK2). Conditions: 1 mM of ATP. The format is biochemical. The method, then:
as §1, §2
On the technique in general: Time-resolved FRET reads energy transfer from a long-lived donor to a nearby acceptor.

T2 sequence (O75116 5-554): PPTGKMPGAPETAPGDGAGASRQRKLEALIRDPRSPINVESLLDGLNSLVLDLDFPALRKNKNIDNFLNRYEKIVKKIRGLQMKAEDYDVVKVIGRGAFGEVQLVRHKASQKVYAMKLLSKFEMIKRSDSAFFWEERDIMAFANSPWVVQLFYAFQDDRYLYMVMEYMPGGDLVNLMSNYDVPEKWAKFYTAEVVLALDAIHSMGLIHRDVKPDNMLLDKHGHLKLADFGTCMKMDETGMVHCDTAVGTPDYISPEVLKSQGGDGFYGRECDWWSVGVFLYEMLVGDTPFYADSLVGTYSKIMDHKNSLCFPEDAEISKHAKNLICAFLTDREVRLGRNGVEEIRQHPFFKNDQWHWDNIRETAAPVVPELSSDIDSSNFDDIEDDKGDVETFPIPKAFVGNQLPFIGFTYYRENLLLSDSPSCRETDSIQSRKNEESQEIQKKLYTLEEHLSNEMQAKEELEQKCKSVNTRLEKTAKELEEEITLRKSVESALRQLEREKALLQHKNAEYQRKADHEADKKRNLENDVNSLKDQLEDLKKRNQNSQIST
T1 sequence (Q13464 1-477): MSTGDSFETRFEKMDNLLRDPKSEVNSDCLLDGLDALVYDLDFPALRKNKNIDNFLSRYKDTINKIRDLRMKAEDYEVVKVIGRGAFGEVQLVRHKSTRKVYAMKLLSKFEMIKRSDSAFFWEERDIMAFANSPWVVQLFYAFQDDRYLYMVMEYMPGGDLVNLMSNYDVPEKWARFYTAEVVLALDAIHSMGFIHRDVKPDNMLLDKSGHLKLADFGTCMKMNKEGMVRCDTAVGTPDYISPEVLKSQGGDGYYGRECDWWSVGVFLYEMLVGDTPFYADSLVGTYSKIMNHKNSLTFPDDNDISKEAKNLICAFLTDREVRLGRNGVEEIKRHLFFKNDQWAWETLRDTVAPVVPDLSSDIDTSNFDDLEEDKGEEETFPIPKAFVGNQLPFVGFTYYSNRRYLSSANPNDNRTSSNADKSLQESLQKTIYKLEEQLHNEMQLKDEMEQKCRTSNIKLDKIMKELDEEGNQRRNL

As to `COc1n[nH]cc1-c1ccc2c(C(=O)C3COc4ccc(Cl)cc4C3)nn(CCN(C)C)c2c1` (centres unmarked) [Compound 5-45], the values for the IC50 in assay [1] and in assay [2] were greater than 501 nM and less than 20 nM, respectively.
`COc1ccc2c(c1)CC(C(=O)c1cn(C[C@H]3CCN3C)c3cc(-c4cn[nH]c4F)ccc13)CO2` (some centres unmarked) [Compound 1-45]: the half-maximal inhibitory concentration (IC50) is greater than 501 nM in assay [1] and 21 to 200 nM in assay [2].
For `O=C(c1cn(CC2CCN2)c2cc(-c3cn[nH]c3F)ccc12)C1COc2ccc(Cl)cc2C1` (centres unmarked) [Compound 1-30], in that order: greater than 501 nM and less than 20 nM.
On to `CN1CC[C@H]1Cn1nc(C(=O)[C@@H]2COc3ccc(F)cc3C2)c2ccc(-c3c[nH]nc3F)cc21` [Compound 5-57], for which the IC50 in assay [1] was 201 to 500 nM; in assay [2] it was less than 20 nM.
The like results for `COc1ccc2c(c1)CC(C(=O)c1cn(CCN(C)C)c3nc(-c4c[nH]nc4Cl)ccc13)CO2` (centres unmarked) [Compound 1-13] were, in that order, greater than 501 nM and less than 20 nM.
For `O=C(c1cn(C[C@H]2CCN2)c2cc(-c3cn[nH]c3Cl)ccc12)C1COc2ccc(Cl)cc2C1` (some centres unmarked) [Compound 1-39], in that order: greater than 501 nM and 21 to 200 nM.
On to `CN(C)CCn1nc(C(=O)C2COc3ccccc3C2)c2ccc(-c3c[nH]nc3C(F)(F)F)cc21` (centres unmarked) [Compound 5-54], for which the results for the IC50 in assay [1] and in assay [2] were greater than 501 nM and 201 to 500 nM, respectively.
As to `COc1ccc2c(c1)CC(C(=O)c1cn(C[C@H]3CCN3C)c3cc(-c4cn[nH]c4OC)ccc13)CO2` (some centres unmarked) [Compound 1-49], the IC50 was greater than 501 nM in assay [1] and 21 to 200 nM in assay [2].
As for `C[C@@H](N)Cn1cc(C(=O)C2COc3ccc(Cl)cc3C2)c2ccc(-c3c[nH]nc3Cl)cc21` (some centres unmarked) [Compound 2-5], the IC50 was 21 to 200 nM in assay [1] and less than 20 nM in assay [2].
On to `CN(C)CCn1cc(C(=O)[C@@H]2COc3ccc(Cl)cc3C2)c2ccc(-c3cn[nH]c3F)cc21` [Compound 1-26], for which the values for the IC50 in assay [1] and in assay [2] were 201 to 500 nM and less than 20 nM, respectively.
As to `O=C(c1cn(C2CNC2)c2cc(-c3c[nH]nc3Cl)ncc12)C1COc2ccc(F)cc2C1` (centres unmarked) [Compound 1-15], the IC50 is greater than 501 nM in assay [1] and 21 to 200 nM in assay [2].
Turning to `CNCCn1cc(C(=O)C2COc3ccc(OC)cc3C2)c2ccc(-c3cn[nH]c3Cl)cc21` (centres unmarked) [Compound 3-23], the figures for the IC50 in assay [1] and in assay [2] were greater than 501 nM and less than 20 nM, respectively.
The like results for `COc1n[nH]cc1-c1ccc2c(C(=O)[C@H]3COc4ccc(Cl)cc4C3)cn(CCCN(C)C)c2c1` [Compound 3-8] were, in that order, greater than 501 nM and 201 to 500 nM.
Turning to `COc1ccc2c(c1)C[C@H](C(=O)c1cn(C[C@@H]3CCN3C)c3cc(-c4cn[nH]c4Cl)ncc13)CO2` [Compound 1-4], the figures for the IC50 in assay [1] and in assay [2] were greater than 501 nM and less than 20 nM, respectively.
For `COc1[nH]ncc1-c1ccc2c(C(=O)C3COc4ccc(Cl)cc4C3)cn(C3CNC3)c2c1` (centres unmarked) [Compound 1-18], in that order: greater than 501 nM and 21 to 200 nM.
Consider `CN(C)CCn1nc(C(=O)C2COc3ccc(Cl)cc3O2)c2ccc(-c3c[nH]nc3F)cc21` (centres unmarked) [Compound 5-60], for which the values for the IC50 in assay [1] and in assay [2] were greater than 501 nM and 21 to 200 nM, respectively.
The like results for `COc1[nH]ncc1-c1ccc2c(C(=O)C3COc4ccc(Cl)cc4C3)cn(CC3CCCN3C)c2c1` (centres unmarked) [Compound 1-19] were, in that order, greater than 501 nM and 21 to 200 nM.
For `COc1ccc2c(c1)CC(C(=O)c1nn(CCN(C)C)c3cc(-c4c[nH]nc4OC)ccc13)CO2` (centres unmarked) [Compound 5-49], in that order: 21 to 200 nM and less than 20 nM.
The like results for `CN(C)CCn1cc(C(=O)C2COc3ccc(Cl)cc3C2)c2ccc(-c3c[nH]nc3Cl)cc21` (centres unmarked) [Compound 1-17] were, in that order, greater than 501 nM and 21 to 200 nM.
As to `CCN(CC)CCn1cc(C(=O)[C@@H]2COc3ccc(OC)cc3C2)c2ccc(-c3cn[nH]c3Cl)cc21` [Compound 3-20], the IC50 in assay [1] is 201 to 500 nM; in assay [2] it was less than 20 nM.
`CN(C)CCn1cc(C(=O)[C@H]2COc3ccc(Cl)cc3C2)c2ccc(-c3cn[nH]c3Cl)cc21` [Compound 5-35]: the IC50 in assay [1] was greater than 501 nM; in assay [2], 201 to 500 nM.
For the molecule `CN(C)CCn1nc(C(=O)[C@@H]2COc3ccccc3O2)c2ccc(-c3cn[nH]c3)cc21` [Compound 5-44], the figures for the IC50 in assay [1] and in assay [2] were 201 to 500 nM and 21 to 200 nM, respectively.
For `NCCn1cc(C(=O)C2COc3ccc(F)cc3C2)c2cnc(-c3c[nH]nc3Cl)cc21` (centres unmarked) [Compound 2-3], in that order: 21 to 200 nM and less than 20 nM.
The like results for `C[C@@H](Cn1cc(C(=O)C2COc3ccc(Cl)cc3C2)c2ccc(-c3cn[nH]c3Cl)cc21)N(C)C` (stereo partly drawn) [Compound 2-12, (6-chlorochroman-3-yl)-[6-(5-chloro-1H-pyrazol-4-yl)-1-[(2S)-2-(dimethylamino)propyl]indol-3-yl]methanone] were, in that order, greater than 501 nM and less than 20 nM.
Consider `COc1n[nH]cc1-c1ccc2c(C(=O)C3COc4ccc(F)cc4C3)cn(CCCN(C)C)c2c1` (centres unmarked) [Compound 3-6], for which the IC50 in assay [1] is greater than 501 nM; in assay [2], 21 to 200 nM.
For `COc1[nH]ncc1-c1ccc2c(C(=O)[C@@H]3COc4ccc(F)cc4C3)cn(CCN(C)C)c2c1` [Compound 5-38], in that order: greater than 501 nM and less than 20 nM.
The like results for `CN1CC[C@@H]1Cn1cc(C(=O)C2COc3ccc(Cl)cc3C2)c2ccc(-c3cn[nH]c3F)cc21` (some centres unmarked) [Compound 1-57] were, in that order, greater than 501 nM and 201 to 500 nM.
Regarding `COc1ccc2c(c1)CC(C(=O)c1cn(CCN(C)C)c3cc(-c4c[nH]nc4Cl)ncc13)CO2` (centres unmarked) [Compound 1-14], the IC50 is greater than 501 nM in assay [1] and 201 to 500 nM in assay [2].
For `CCN(C)CCn1cc(C(=O)[C@@H]2COc3ccc(OC)cc3C2)c2ccc(-c3cn[nH]c3Cl)cc21` [Compound 3-28], in that order: greater than 501 nM and 21 to 200 nM.
On to `CCN1CC[C@@H]1Cn1cc(C(=O)C2COc3ccc(OC)cc3C2)c2ccc(-c3cn[nH]c3Cl)cc21` (some centres unmarked) [Compound 1-58], for which the figures for the IC50 in assay [1] and in assay [2] were greater than 501 nM and 21 to 200 nM, respectively.
The like results for `C[C@H](Cn1cc(C(=O)C2COc3ccc(Cl)cc3C2)c2ccc(-c3cn[nH]c3Cl)cc21)N(C)C` (some centres unmarked) [Compound 2-15] were, in that order, 201 to 500 nM and less than 20 nM.
For the molecule `CCN1CC[C@@H]1Cn1cc(C(=O)C2COc3ccc(OC)cc3C2)c2ccc(-c3cn[nH]c3OC)cc21` (some centres unmarked) [Compound 1-56], the results for the IC50 in assay [1] and in assay [2] were greater than 501 nM and 21 to 200 nM, respectively.
For `COc1ccc2c(c1)CC(C(=O)c1cn(C[C@@H]3CCN3)c3cc(-c4cn[nH]c4Cl)ccc13)CO2` (some centres unmarked) [Compound 1-36], in that order: 201 to 500 nM and less than 20 nM.
For `CN(C)CCn1nc(C(=O)C2COc3ccc(F)cc3C2)c2ccc(-c3c[nH]nc3F)cc21` (centres unmarked) [Compound 5-55], in that order: 201 to 500 nM and less than 20 nM.
For `COc1ccc2c(c1)C[C@H](C(=O)c1cn(C[C@H]3CCN3C)c3cc(-c4cn[nH]c4Cl)ccc13)CO2` [Compound 1-51], the results for the IC50 in assay [1] and in assay [2] were greater than 501 nM and less than 20 nM, respectively.
For the molecule `CN(C)CCn1cc(C(=O)[C@@H]2COc3ccc(F)cc3C2)c2ccc(-c3c[nH]nc3Cl)cc21` [Compound 5-21], the IC50 in assay [1] was 201 to 500 nM; in assay [2] it was less than 20 nM.
In the case of `NC1(Cn2cc(C(=O)C3COc4ccc(Cl)cc4C3)c3ccc(-c4cn[nH]c4F)cc32)CC1` (centres unmarked) [Compound 4-5], the IC50 in assay [1] and in assay [2] was less than 20 nM in each case.
Consider `COc1ccc2c(c1)CC(C(=O)c1cn(C[C@@H]3CCN3C)c3cc(-c4cn[nH]c4F)ccc13)CO2` (some centres unmarked) [Compound 1-48], for which the IC50 in assay [1] was greater than 501 nM; in assay [2], 21 to 200 nM.
The like results for `CNCCn1cc(C(=O)C2COc3ccc(F)cc3C2)c2ccc(-c3c[nH]nc3Cl)cc21` (centres unmarked) [Compound 3-5] were, in that order, 201 to 500 nM and less than 20 nM.
Take `CNCCn1cc(C(=O)C2COc3ccc(Cl)cc3C2)c2ccc(-c3cn[nH]c3Cl)cc21` (centres unmarked) [Compound 3-9]: the IC50 in assay [1] was greater than 501 nM; in assay [2], 201 to 500 nM.
For `COc1ccc2c(c1)C[C@H](C(=O)c1cn(CCN(C)C)c3cc(-c4c[nH]nc4Cl)ccc13)CO2` [Compound 5-4], the IC50 is greater than 501 nM in assay [1] and less than 20 nM in assay [2].
Turning to `CN(C)CCn1cc(C(=O)C2COc3ccc(Cl)cc3C2)c2cnc(-c3cn[nH]c3F)nc21` (centres unmarked) [Compound 1-34], the results for the IC50 in assay [1] and in assay [2] were greater than 501 nM and 201 to 500 nM, respectively.
Turning to `CCN(CC)CCn1cc(C(=O)C2COc3ccc(Cl)cc3C2)c2ccc(-c3cn[nH]c3OC)cc21` (centres unmarked) [Compound 3-13], the results for the IC50 in assay [1] and in assay [2] were greater than 501 nM and less than 20 nM, respectively.
For `CCN(CC)CCn1cc(C(=O)C2COc3ccc(Cl)cc3C2)c2ccc(-c3cn[nH]c3Cl)cc21` (centres unmarked) [Compound 3-12], the IC50 in assay [1] is greater than 501 nM; in assay [2] it was 21 to 200 nM.
As to `CCN(CC)CCn1cc(C(=O)[C@@H]2COc3ccc(Cl)cc3C2)c2ccc(-c3cn[nH]c3OC)cc21` [Compound 3-14], the IC50 is greater than 501 nM in assay [1] and less than 20 nM in assay [2].
For `COc1[nH]ncc1-c1ccc2c(C(=O)C3COc4ccc(Cl)cc4C3)cn(CCN(C)C)c2n1` (centres unmarked) [Compound 1-8], in that order: greater than 501 nM and 201 to 500 nM.

Broadly, the IC50 is the concentration needed to halve the response being measured.

The values above are taken from patent US20240360139A1, “BLOOD BRAIN BARRIER PENETRATING SELECTIVE INHIBITORS OF ROCK2 PROTEIN KINASES AND USES THEREOF” (GENOSCO Inc., priority 2023, published 2024).
